The structures appear in SMILES notation. Calls of active or inactive are those of the source. No cut-off for these calls is given here. Positions of bridges follow the written chain, without caps; N, C: chain ends. Non-standard residues stand in square brackets, D forms with d. Residues, ends and D or L forms follow the SMILES beside them. *: point of attachment. NMe2Val = CC(C)[C@@H](C(=O)*)N(C)C; NMeLys(Me) = CNCCCC[C@H](NC)C(=O)O; NMeI = CC[C@H](C)[C@H](NC)C(=O)O; NMeT = CN[C@H](C(=O)O)[C@@H](C)O; NMeL = CN[C@@H](CC(C)C)C(=O)O; NMeDap = CN[C@@H](CN)C(=O)O; dHiv = CC(C)[C@@H](O)C(=O)O; NMeA = CN[C@@H](C)C(=O)O; dNMeA = CN[C@H](C)C(=O)O

This passage reports inhibition and Activity results from ChEMBL document CHEMBL5365553, “Design of Synthetic Surrogates for the Macrolactone Linker Motif in Coibamide A” (ACS Med Chem Lett, 2023).

Type in all cases: functional, cell-based
Assay [1] has as its system U-87 MG. As to the kind of experiment: Antiproliferative activity against human U-87MG cells expressing GLuc assessed as cell viability at 0.0003 to 300 nM incubated for 18 hrs by CellTiter-Glo Luminescent Cell Viability Assay. The settings on record: U-87MG ATCC, dose 0.0003-300 nM. In general terms: ATP-based viability assays read luminescence as a measure of living cells.

The test system of assay [2] is U-87 MG. As to the kind of experiment: Antiproliferative activity against human U-87 MG cells expressing GLuc assessed as as inhibition of GLuc secretion incubated for 18 hrs by CellTiter-Glo Luminescent Cell Viability Assay. The settings on record: U-87MG ATCC.
Assay [3] deals with U-87 MG. As to the kind of experiment: Antiproliferative activity against human U87 cells expressing GLuc assessed as inhibition of GLuc secretion incubated for 18 hrs by CellTiter-Glo Luminescent Cell Viability Assay. The conditions noted are these: U-87MG ATCC, dose 0.1-10 µM.
The subject of assay [4] is SF-268. Put plainly: Inhibition of endogenously-secreted VEGF-A in human SF-268 cells incubated for 24 hrs by ELISA assay. The conditions noted are these: dose 30-100 nM.
The test system of assay [5] is SF-268. Put plainly: Downregulation of VEGF-A protein secretion level in human SF-268 cells at 30 to 300 nM for 24 hrs by ELISA analysis. The settings on record: dose 30-300 nM.
Assay [6] relates to SF-268. Put plainly: Downregulation of VEGF-A protein secretion level in human SF-268 cells for 24 hrs by ELISA analysis. The settings on record: dose 30-100 nM. A general note: In an ELISA, binding on a coated surface is turned into a signal by an enzyme label.

In the case of `CC[C@H](C)[C@H]1C(=O)N[C@@H](C)C(=O)N(C)[C@@H](CC(C)C)C(=O)N[C@@H](Cc2ccc(OC)cc2)C(=O)N(C)[C@H](C)C(=O)O[C@H](C)[C@H](N(C)C(=O)[C@H](CC(C)C)N(C)C(=O)[C@H](C)N(C)C(=O)[C@H](OC(=O)[C@H](C(C)C)N(C)C)C(C)C)C(=O)N(C)[C@@H](C)C(=O)N1C` (NMe2Val-[dHiv][NMeA][NMeL][NMeT][NMeA][NMeI]A[NMeL]Y(Me)[dNMeA]; ester 4-C), the inhibition entry in the assay on U-87 MG [1] was “inactive”. In addition, the inhibition result in the assay on U-87 MG [2] is “Dose-Dependent Effect”. The Activity result in the assay with U-87 MG [3] is “Dose-Dependent Effect”.

As for `CC[C@H](C)[C@H]1C(=O)N[C@@H](C)C(=O)N(C)[C@@H](CC(C)C)C(=O)N[C@@H](Cc2ccc(OC)cc2)C(=O)N(C)CCCC[C@H](N(C)C(=O)[C@H](CC(C)C)N(C)C(=O)[C@H](C)N(C)C(=O)[C@H](OC(=O)[C@H](C(C)C)N(C)C)C(C)C)C(=O)N(C)[C@@H](C)C(=O)N1C` (NMe2Val-[dHiv][NMeA][NMeL][NMeLys(Me)][NMeA][NMeI]A[NMeL]Y(Me); lactam 4-C), the inhibition result in the assay on U-87 MG [1] was “inactive”. Besides, the inhibition result in the assay on SF-268 [4] and in the assay with U-87 MG [2] was “Dose-Dependent Effect” throughout. For the same molecule, the Activity entry in the assay on U-87 MG [3] and with SF-268 [5] was “Dose-Dependent Effect” in each case.

For `CC[C@H](C)[C@H]1C(=O)N[C@@H](C)C(=O)N(C)[C@@H](CC(C)C)C(=O)N[C@@H](Cc2ccc(OC)cc2)C(=O)N(C)[C@H](C)/C=C/[C@H](C)[C@H](N(C)C(=O)[C@H](CC(C)C)N(C)C(=O)[C@H](C)N(C)C(=O)[C@H](OC(=O)[C@H](C(C)C)N(C)C)C(C)C)C(=O)N(C)[C@@H](C)C(=O)N1C`, in the assay with U-87 MG [1], the inhibition result is “inactive”. For the same molecule, in the assay with U-87 MG [2], the inhibition entry is “Dose-Dependent Effect”. The Activity result with U-87 MG [3] is “Dose-Dependent Effect”.

For the molecule `CC[C@H](C)[C@H]1C(=O)N[C@@H](C)C(=O)N(C)[C@@H](CC(C)C)C(=O)N[C@@H](Cc2ccc(OC)cc2)C(=O)N(C)[C@H](C)C(=O)N(C)C[C@H](N(C)C(=O)[C@H](CC(C)C)N(C)C(=O)[C@H](C)N(C)C(=O)[C@H](OC(=O)[C@H](C(C)C)N(C)C)C(C)C)C(=O)N(C)[C@@H](C)C(=O)N1C`, in the assay with U-87 MG [1], the inhibition result was “inactive”. Moreover, the inhibition entry in the assay with U-87 MG [2] was “Dose-Dependent Effect”.

Take `CC[C@H](C)[C@H]1C(=O)N[C@@H](C)C(=O)N(C)[C@@H](CC(C)C)C(=O)N[C@@H](Cc2ccc(-c3ccccc3)cc2)C(=O)N(C)[C@H](C)C(=O)N[C@H](C)[C@H](N(C)C(=O)[C@H](CC(C)C)N(C)C(=O)[C@H](COC)N(C)C(=O)[C@H](OC(=O)[C@H](C(C)C)N(C)C)C(C)C)C(=O)N(C)[C@@H](COC)C(=O)N1C`: the inhibition entry in the assay on U-87 MG [1] was “inactive”. Moreover, the inhibition result in the assay with U-87 MG [2] is “Dose-Dependent Effect”. The Activity entry with U-87 MG [3] was “Dose-Dependent Effect”.

On to `CC[C@H](C)[C@H]1C(=O)N[C@@H](C)C(=O)N(C)[C@@H](CC(C)C)C(=O)N[C@@H](Cc2ccc(OC)cc2)C(=O)N(C)[C@H](C)C(=O)N[C@H](C)[C@H](N(C)C(=O)[C@H](CC(C)C)N(C)C(=O)[C@H](C)N(C)C(=O)[C@H](OC(=O)[C@H](C(C)C)N(C)C)C(C)C)C(=O)N(C)[C@@H](C)C(=O)N1C`, for which the inhibition entry in the assay with U-87 MG [1] was “inactive”. Besides, in the assay with U-87 MG [2], the inhibition entry was “Dose-Dependent Effect”. Also, the Activity entry in the assay on U-87 MG [3] was “Dose-Dependent Effect”.

With `CC[C@H](C)[C@H]1C(=O)N[C@@H](C)C(=O)N(C)[C@@H](CC(C)C)C(=O)N[C@@H](Cc2ccc(OC)cc2)C(=O)N(C)[C@H](C)C(=O)NC[C@H](N(C)C(=O)[C@H](CC(C)C)N(C)C(=O)[C@H](C)N(C)C(=O)[C@H](OC(=O)[C@H](C(C)C)N(C)C)C(C)C)C(=O)N(C)[C@@H](C)C(=O)N1C` (NMe2Val-[dHiv][NMeA][NMeL][NMeDap][NMeA][NMeI]A[NMeL]Y(Me)[dNMeA]; lactam 4-C), the inhibition result in the assay on U-87 MG [1] was “inactive”. Further, in the assay with U-87 MG [2], the inhibition entry is “Dose-Dependent Effect”. Besides, in the assay on U-87 MG [3], the Activity entry was “Dose-Dependent Effect”.

With `CC[C@H](C)[C@H]1C(=O)N[C@@H](C)C(=O)N(C)[C@@H](CC(C)C)C(=O)N[C@@H](Cc2ccc(OC)cc2)C(=O)N(C)[C@H](C)C(=O)N[C@H](C)[C@H](N(C)C(=O)[C@H](CC(C)C)N(C)C(=O)[C@H](COC)N(C)C(=O)[C@H](OC(=O)[C@H](C(C)C)N(C)C)C(C)C)C(=O)N(C)[C@@H](COC)C(=O)N1C`, the inhibition entry in the assay on U-87 MG [1] was “inactive”. Also, the inhibition entry with SF-268 [4] and in the assay on U-87 MG [2] was “Dose-Dependent Effect” in each case. The Activity entry with SF-268 [6] and in the assay with U-87 MG [3] was “Dose-Dependent Effect” in each case.

As to `CC[C@H](C)[C@H]1C(=O)N[C@@H](C)C(=O)N(C)[C@@H](CC(C)C)C(=O)N[C@@H](Cc2ccc(OC)cc2)C(=O)N(C)[C@H](C)CC[C@H](C)[C@H](N(C)C(=O)[C@H](CC(C)C)N(C)C(=O)[C@H](C)N(C)C(=O)[C@H](OC(=O)[C@H](C(C)C)N(C)C)C(C)C)C(=O)N(C)[C@@H](C)C(=O)N1C`, in the assay on U-87 MG [1], the inhibition result is “inactive”. Moreover, the inhibition entry with SF-268 [4] and with U-87 MG [2] was “Dose-Dependent Effect” throughout. Moreover, the Activity entry with U-87 MG [3] and in the assay with SF-268 [5] was “Dose-Dependent Effect” in each case.
